The values that follow come from patent US8410282B2, “Compounds as adenosine A1 receptor antagonists” (Palobiofarma, S.L., priority 2007, dated 2013).

For assay [1], the target named is T1, hA1 receptors (Homo sapiens, UniProt P30542).
T1 construct: purchased Receptor Biology, Inc. (USA); host or cells: CHO cells
T1 sequence (P30542 1-326): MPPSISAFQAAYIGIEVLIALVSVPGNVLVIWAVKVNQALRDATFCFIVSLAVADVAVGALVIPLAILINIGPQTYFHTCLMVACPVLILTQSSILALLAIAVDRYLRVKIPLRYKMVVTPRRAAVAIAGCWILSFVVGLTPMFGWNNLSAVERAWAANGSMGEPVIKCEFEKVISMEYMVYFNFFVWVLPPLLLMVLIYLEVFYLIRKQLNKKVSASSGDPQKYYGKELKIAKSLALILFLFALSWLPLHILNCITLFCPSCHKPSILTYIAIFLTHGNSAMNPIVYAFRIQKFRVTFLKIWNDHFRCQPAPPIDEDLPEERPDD
Kind of assay: Adenosine receptor subtype competition radioligand binding assay, hA1. The settings on record: membranes from hA1 receptors transfected to CHO cells, [3H]-DPCPX as radioligand, 90 min at 25° C.; read-out: A1 Antagonism (Ki nM). The procedure:
(§1) Pharmacological Activity Adenosine Receptor Subtype Competition Radioligand Binding Assay
(§2) Human membranes from recombinant adenosine receptors were purchased from Receptor Biology, Inc. (USA)
Competition assays were carried out by incubation of membranes from hA1 receptors transfected to CHO cells, [^3H]-DPCPX as radioligand, buffer (HEPES 20 mM (pH=7.4), 10 mM MgCl2, 100 mM NaCl, 2 units/ml adenosine deaminase), and unlabelled ligand in a total volume of 0.2 ml for 90 min at 25° C. R-PIA was used to determinate non-specific binding. Filter over Schleicher & Schuell GF/52 filters (pre-soaked 0.5% polyethylenimine) in a Brandel cell harvester. Unbound radioligand was removed with HEPES 30 mM (3×250 μl), NaCl (100 mM) and MgCl2 (10 mM).

Assay [2] concerns the target T2, hA2a receptors (Homo sapiens, UniProt P29274).
T2 construct: purchased Receptor Biology, Inc. (USA); host or cells: HEK293 cells
Put plainly: Adenosine receptor subtype competition radioligand binding assay, hA2a. The settings on record: membranes from hA2a receptors transfected to HEK293 cells, [3H]ZM241385 as radioligand, 90 min at 25° C.; read-out: A2a Antagonism (Ki nM). The procedure:
as §1, §2
Competition assays were carried out by incubation of membranes from hA2a receptors transfected to HEK293 cells, [^3H]ZM241385 as radioligand, buffer (50 mM Tris-HCl (pH=7.4), 10 mM MgCl2, 1 mM […], 2 units/ml adenosine deaminase), and unlabelled ligand in a total volume of 0.2 ml for 90 min at 25° C. NECA was used to determinate non-specific binding. Filter over Schleicher & Schuell GF/52 filters (pre-soaked 0.5% polyethylenimine) in a Brandel cell harvester. Unbound radioligand was removed with 3×3 ml ice-cold 50 mM Tris-HCl (pH=7.4), 0.9% NaCl.

T2 sequence (P29274 whole entry): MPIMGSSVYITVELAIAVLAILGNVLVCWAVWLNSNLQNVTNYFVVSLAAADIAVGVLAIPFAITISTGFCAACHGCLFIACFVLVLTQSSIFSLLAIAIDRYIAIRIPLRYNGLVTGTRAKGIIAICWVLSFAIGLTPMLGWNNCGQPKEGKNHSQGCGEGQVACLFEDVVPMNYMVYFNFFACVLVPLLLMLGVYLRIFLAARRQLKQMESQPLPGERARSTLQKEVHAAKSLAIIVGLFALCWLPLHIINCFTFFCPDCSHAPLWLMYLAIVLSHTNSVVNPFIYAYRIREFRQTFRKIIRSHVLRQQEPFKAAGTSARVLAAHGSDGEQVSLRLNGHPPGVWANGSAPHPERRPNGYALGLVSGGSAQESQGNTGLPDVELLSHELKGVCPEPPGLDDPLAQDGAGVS

Usually Ki stands for the equilibrium dissociation constant of an inhibitor or competing ligand from its target. For `N#Cc1sc(NC(=O)[C@@H]2CCC[C@H](C(=O)O)C2)nc1-c1ccccc1` (relative stereo) [Example 8, Cis-3-(5-cyano-4-phenyl-1,3-thiazol-2-ylcarbamoyl)cyclohexane Carboxylic Acid], the inhibitory constant (Ki) was 17 nM in assay [1] and above 1200 nM in assay [2].

In the case of `N#Cc1sc(NC(=O)[C@@H]2CCC[C@H](C(=O)O)C2)nc1-c1ccccc1Cl` (relative stereo) [Example 26, Cis-3-[4-(2-chlorophenyl)-5-cyano-1,3-thiazol-2-ylcarbamoyl]cyclohexanecarboxylic Acid], the Ki turned out to be 31 nM in assay [1] and 3670 nM in assay [2].

For the compound `N#Cc1sc(NC(=O)[C@@H]2CC[C@H](C(=O)O)C2)nc1-c1ccccc1F` (relative stereo) [Example 50, Cis-3-[5-cyano-4-(2-fluorophenyl)-1,3-thiazol-2-ylcarbamoyl]cyclopentanecarboxylic Acid], the figures for the Ki in assay [1] and in assay [2] were 16 nM and above 1300 nM, respectively.

As to `N#Cc1sc(NC(=O)[C@@H]2CCC[C@H](C(=O)O)C2)nc1-c1cccc(F)c1` (relative stereo) [Example 75, Cis-3-[5-cyano-4-(3-fluorophenyl)-1,3-thiazol-2-ylcarbamoyl]cyclohexanecarboxylic Acid], the inhibition constant Ki in assay [1] was 14 nM; in assay [2], 1840 nM.

As to `N#Cc1sc(NC(=O)[C@@H]2CCC[C@H](C(=O)O)C2)nc1-c1cc(F)cc(F)c1` (relative stereo) [Example 114, Cis-3-[5-cyano-4-(3,5-difluorophenyl)-1,3-thiazol-2-ylcarbamoyl]cyclohexanecarboxylic Acid], the inhibition constant Ki in assay [1] is 32 nM; in assay [2], above 10000 nM.

With `CC(C)(CCC(=O)O)C(=O)Nc1nc(-c2ccccc2)c(C#N)s1` [Example 2, 4-(5-cyano-4-phenyl-1,3-thiazol-2-ylcarbamoyl)-4-methylpentanoic Acid], the values for the Ki in assay [1] and in assay [2] were 43 nM and above 10000 nM, respectively.

In the case of `N#Cc1sc(NC(=O)C2CCC(C(=O)O)C2)nc1-c1ccccc1` (stereo not shown) [Example 5, 3-(5-cyano-4-phenyl-1,3-thiazol-2-ylcarbamoyl)cyclopentane Carboxylic Acid], the inhibition constant Ki was determined as 6.4 nM in assay [1] and 940 nM in assay [2].

Consider `N#Cc1sc(NC(=O)[C@H]2CC[C@@H](C(=O)O)CC2)nc1-c1ccccc1` [Example 10, Cis-4-(5-cyano-4-phenyl-1,3-thiazol-2-ylcarbamoyl)cyclohexane Carboxylic Acid], for which the inhibitory constant (Ki) in assay [1] came out at 7 nM; in assay [2] it was 1080 nM.

With `N#Cc1sc(NC(=O)[C@H]2CC[C@H](C(=O)O)CC2)nc1-c1cccc(Cl)c1` [Example 36, trans-4-[4-(3-chlorophenyl)-5-cyano-1,3-thiazol-2-ylcarbamoyl]cyclohexanecarboxylic Acid], the inhibition constant Ki in assay [1] stood at 25 nM; in assay [2], 487 nM.

With `CC(C)(CCC(=O)O)C(=O)Nc1nc(-c2cccc(F)c2)c(C#N)s1` [Example 68, 4-[5-cyano-4-(3-fluorophenyl)-1,3-thiazol-2-ylcarbamoyl]-4-methylpentanoic Acid], the Ki in assay [1] is 51 nM; in assay [2], above 4000 nM.

As to `N#Cc1sc(NC(=O)[C@H]2CC[C@@H](C(=O)O)CC2)nc1-c1cccc(F)c1` [Example 77, Cis-4-[5-cyano-4-(3-fluorophenyl)-1,3-thiazol-2-ylcarbamoyl]cyclohexanecarboxylic Acid], the inhibition constant (Ki) in assay [1] is 6 nM; in assay [2], 776 nM.
